According to paper PMC7804859, “A metabolically stable apelin-17 analog decreases AVP-induced antidiuresis and improves hyponatremia” (Nature Communications, 2021):
“And” between values parts separate entries of the source, which are not always exact repeats. Identical values can stand only once. Ends that are not written are not given here.

Experiments:
human V2-R = biological target: T1, human V2-R (Homo sapiens, UniProt P30518); assay: cAMP production in HEK-293 T cells expressing the human V2-R (HTRF); assay type: cell-based; conditions: FSK 5.10-6M
T1 construct: host or cells: HEK-293T cells, transient transfection
Description: (§1) 152 Supplementary Methods
(§2) 154 We quantified cAMP production with the cAMP dynamic 2 assay kit (Cisbio Bioassays,
(§3) 155 Codolet, France), which is based on homogeneous time-resolved fluorescence (HTRF)
156 technology, as previously described 1. […]
For cells expressing the V2-R, HEK-
160 293T cells were transiently transfected with the human V2-R (cDNA Resource Center), after
161 48h, 4000 cells/well were added to white 384-well optiplates and stimulated either with 5
(§4) Cells were then lysed, and
(§5) 165 cAMP levels were determined in accordance with the kit manufacturer’s instructions.
(§6) 166 Stimulation was performed in stimulation buffer-IBMX (SBI) (Hank’s balanced salt solution
(§7) 167 (HBSS-Life Technology), 5 mmol/l Hepes, 0.1% BSA stabilizer (Perkin Elmer), 1 mmol/l
(§8) 168 isobutylmethylxanthine (IBMX, Sigma Aldrich, pH 7.4)). […]

rat apelin-R = biological target: T2, rat apelin-R (Rattus norvegicus, UniProt Q9JHG3); assay: Radioligand binding ([125I]-pE13F) to membranes from CHO cells stably expressing rat apelin-R-EGFP; conditions: 1 h 20 °C, pH 7.4, new batch of LIT01-196
T2 construct: expressed in transfected cells; membrane preparation
T2 sequence (Q9JHG3 1-377): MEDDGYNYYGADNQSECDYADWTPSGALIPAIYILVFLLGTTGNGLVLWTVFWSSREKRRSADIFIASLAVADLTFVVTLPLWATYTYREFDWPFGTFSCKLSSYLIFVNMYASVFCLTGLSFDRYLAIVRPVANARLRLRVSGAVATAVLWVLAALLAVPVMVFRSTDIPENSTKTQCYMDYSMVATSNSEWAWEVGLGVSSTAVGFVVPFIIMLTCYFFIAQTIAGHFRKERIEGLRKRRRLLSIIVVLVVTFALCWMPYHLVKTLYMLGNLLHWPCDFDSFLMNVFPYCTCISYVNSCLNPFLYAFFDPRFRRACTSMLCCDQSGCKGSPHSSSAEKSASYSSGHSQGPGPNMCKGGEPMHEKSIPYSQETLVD
Description: Membranes from CHO cells stably expressing rat apelin-R-EGFP were prepared as previously described[23]. […] The reaction was stopped by adding ice-cold binding buffer and filtering through Whatman GF/C filters. The filters were washed and radioactivity was counted with a Wizard 1470 Wallac gamma counter (PerkinElmer, Turku, Finland).

rat apelin-R-EGFP = biological target: T3, rat apelin-R-EGFP (Rattus norvegicus, UniProt Q9JHG3); assay: Inhibition of forskolin-induced cAMP production in CHO cells stably expressing rat apelin-R-EGFP (HTRF); assay type: cell-based; conditions: 5 µmol/l forskolin, 30 min 20 °C
T3 construct: expressed in transfected cells
T3 sequence (Q9JHG3 1-377): T2 sequence (Q9JHG3 1-377)
Description: as §1, §2, §3
156 technology, as previously described 1. For cells expressing the Apelin-R, 2000 CHO cells/well
157 stably expressing rat apelinR-EGFP (clone B70) were added to the 384-well plate and
158 stimulated with 5 µmol/l forskolin (FSK) and various concentrations (0.01 pmol/l to 100 […]
as §4, §5, §6, §7, §8

in vivo [1] = conditions: rat, in vivo, iv
Description: (§9) 187 Apelin radioimmunoassay
(§10) 188 Plasma samples (0.5 ml) were acidified with 0.175 ml of 3 mol/l HCl and stored at -80°C
(§11) 189 until use for apelin RIA. Before thawing the sample on ice, 0.05% BSA was added, and the
(§12) 190 samples were centrifuged at 20000 x g at 4°C for 10 min. The supernatants were collected and
(§13) 191 the pH was adjusted to 6.5 with 10 mol/l NaOH and 2 mol/l Tris-HCl buffer (pH 7.4). Apelin
(§14) 192 was extracted from plasma by mixing the supernatant with 0.3 ml of 0.1% BSA in H2O and 1
(§15) 193 ml of 1% trifluoroacetic acid (TFA) - 0.1% BSA, and running the mixture on a Sep-Pak C18
(§16) 194 cartridge (Waters) previously washed with 2 ml 100% acetonitrile and equilibrated with 5 ml
(§17) 195 1% TFA - 0.1% BSA. The columns then were washed with 3 ml 1% TFA - 0.1% BSA and
(§18) 196 apelin was eluted with 1.5 ml 100% acetonitrile. […]
(§19) 208 Plasma or brain apelin levels w ere deter mined by RIA. Samples (0.1ml) w ere mixed with 125I-
(§20) 211 dilution: 1/4500) to give a total volume of 0.2 ml and were incubated at 4°C overnight. We
(§21) 212 used this radioligand instead of [Glp65, Nle75, Tyr77] [125I]-apelin13 since the substitution of
(§22) 214 derivatives as described previously by 3,4.
(§23) 215 We then added 0.5 ml of Amerlex (Amersham RPN 510), and the resulting mixture was
(§24) 216 incubated for 10 min at room temperature. The tubes were centrifuged at 2600 x g at 4°C for
217 20 min. The supernatant was removed and the radioactivity of the precipitates was measured.
218 We assessed the cross-reactivity of the apelin antiserum with various N- and C-terminally
232 according to the following equation: [plasma apelin] tx = [plasma apelin] t0 * e(-kt) , where k is
233 the elimination rate constant. […]

in vivo [2] = conditions: mouse, in vivo, iv
Description: as §9, §10, §11, §12, §13, §14, §15, §16, §17, §18, §19, §20, §21, §22, §23, §24
217 20 min. The supernatant was removed and the radioactivity of the precipitates was measured. […]

[3] = tested on: normonatremic Sprague-Dawley rats; assay: Effects of s.c. administration on metabolic parameters in normonatremic rats; assay type: in vivo, rat
control rats = assay: Plasma AVP and apelin-IR levels in control rats (RIA); assay type: in vivo, rat; parameters: Apelin / AVP: unit not given here
Description: as §9
(§25) 189 until use for apelin RIA.
(§26) The supernatants were collected and
(§27) The samples were dried and dissolved in
(§28) 201 centrifuged (17000 x g, 4°C, 20 min). The supernatant (4 ml) was collected, and mixed with
(§29) The columns were then treated as described in
(§30) Samples (0.1ml) w ere mixed with 125I-
as §21, §22
(§31) 216 incubated for 10 min at room temperature.
(§32) This antiserum identified the apelin present in the
(§33) Most of the apelin in human plasma was
(§34) 252 TechMedILL platfor m (Illkirch) reviewed and approved by the agriculture ministry regulating
(§35) 256 Male Sprague-Dawley rats were killed by decapitation, and trunk blood was collected on ice
(§36) 257 (into 50 µl of 0.3M EDTA (pH 7.4) per 1 ml of blood). Samples were centrifuged (2,600 x g,
(§37) 258 4°C, 20 min), and the resulting plasma was split into 500 µl aliquots, to which we added 168
(§38) 259 µl of 3N HCl before storage at -80°C. The AVP RIA was performed as previously described
(§39) 260 5, using a specific AVP-[Arg8] antibody (final dilution, 1/4.5) and [125I]-(Tyr2Arg8)-AVP
(§40) 261 (2200 Ci/mmol, Perkin-Elmer, Billerica, MA; 15000 dpm) as a tracer. […]

[4] = tested on: hyponatremic rats (AVP 30 ng/h); assay: Effects of LIT01-196 and tolvaptan in rat model of AVP-induced hyponatremia; assay type: in vivo
Description: Meloxicam was administered postoperatively for analgesia. Animals were then individually housed in metabolic cages (Techniplast), and given a semi-liquid diet consisting of 25 ml Gel-Diet Breeding-10 (SAFE, Augy, France) mixed with 25 ml tap water per day, with water available ad libitum. Animal weight, water, and food consumption were measured daily. Urine was collected daily, urinary electrolytes (Na^+, K^+, Cl^−) were determined with an ISE 3000 (Caretium Medical Instruments, Shenzhen, China) and urinary osmolality was measured with a Cryobasic 1 osmometer (Astori Tecnica, Poncarale, Italy). Blood samples were collected on ice, before implantation of the osmotic minipump, and before drug administration, under isoflurane anesthesia, from the tail vein (4 µl of lithium heparinate (1600 IU/ml) for 400 µl of blood). The blood samples were immediately centrifuged (4 °C, 2600 × g, 20 min), and plasma electrolyte (Na^+, K^+, Cl^−) levels were quantified with an ISE 3000. On the last day of the experiment, blood was also collected on ice by intracardiac puncture. This blood sample was collected into lithium heparinate under isoflurane anesthesia; plasma electrolyte levels were determined as described above and the animals were immediately killed by carbon monoxide inhalation.

hyponatremic rats = assay: Plasma AVP and apelin-IR levels in hyponatremic rats (RIA); assay type: in vivo, rat
Description: as §9, §25, §26, §27, §28, §29, §30, §21, §22, §31, §32, §33, §34, §35, §36, §37, §38, §39, §40

patients = conditions: cited from earlier work
anti-K17F serum = assay: Inhibition of [125I]-pE13F binding to anti-K17F serum (apelin RIA, cross-reactivity); parameters: species or system rabbit; conditions: read-out: IC50, recognition by antibody directed against K17F, antiserum 1/4500
Description: as §29, §30, §21, §22, §31, §32
Most of the apelin in human plasma was […]

[5] = 900 nmol/kg SC (tolvaptan 0.4.SC [sic]), normonatremic rats, single animals

T1 sequence (P30518 whole entry): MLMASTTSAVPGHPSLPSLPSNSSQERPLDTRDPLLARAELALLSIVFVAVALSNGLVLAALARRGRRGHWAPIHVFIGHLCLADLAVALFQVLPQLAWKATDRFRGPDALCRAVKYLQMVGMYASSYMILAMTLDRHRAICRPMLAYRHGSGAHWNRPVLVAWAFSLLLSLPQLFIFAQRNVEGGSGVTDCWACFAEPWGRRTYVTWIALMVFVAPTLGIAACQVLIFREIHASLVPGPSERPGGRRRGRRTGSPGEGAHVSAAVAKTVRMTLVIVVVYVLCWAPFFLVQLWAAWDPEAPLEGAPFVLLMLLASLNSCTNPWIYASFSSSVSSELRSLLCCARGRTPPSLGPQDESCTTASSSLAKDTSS

C=C[C@@]1(C)CC(=O)[C@]2(O)[C@@]3(C)[C@@H](O)CCC(C)(C)[C@@H]3[C@H](O)[C@H](OC(C)=O)[C@@]2(C)O1 [FSK]
cAMP production, Value (Fig 2B) (human V2-R; experiment 1): 139.382 | cAMP production, Value (Fig 2B) (human V2-R; experiment 2): 85.1109 | cAMP production, Value (Fig 2B) (human V2-R; experiment 3): 116.78 | cAMP production, Value (Fig 2B) (human V2-R; experiment 4): 128.996

CSCC[C@H](NC(=O)[C@@H]1CCCN1C(=O)CNC(=O)[C@H](CCCCN)NC(=O)[C@H](Cc1cnc[nH]1)NC(=O)[C@H](CO)NC(=O)[C@H](CC(C)C)NC(=O)[C@H](CCCNC(=N)N)NC(=O)[C@@H]1CCCN1C(=O)[C@H](CCCNC(=N)N)NC(=O)[C@H](CCC(N)=O)NC(=O)[C@H](CCCNC(=N)N)NC(=O)[C@H](CCCNC(=N)N)NC(=O)[C@H](Cc1ccccc1)NC(=O)[C@@H](N)CCCCN)C(=O)N1CCC[C@H]1C(=O)N[C@@H](Cc1ccccc1)C(=O)O [K17F, reference compound]
Ki (rat apelin-R): 0.14 ± 0.02 nM | IC50 (rat apelin-R-EGFP): 0.6 ± 0.2 nM | half-life (in vivo [1]): 0.833 min | half-life (in vivo [2]): 0.733 min

Cc1ccccc1C(=O)Nc1ccc(C(=O)N2CCCC(O)c3cc(Cl)ccc32)c(C)c1 (stereo not shown) [tolvaptan, reference compound]
Urine osmolality (3 hours) [3, 5]: 400 and 540 and 520 and 404 and 412 | Urine osmolality (6 hours) [3, 5]: 484 and 656 and 532 and 492 and 496 | Urine osmolality (24 hours) [3, 5]: 772 and 1396 and 1244 and 1552 and 1324 and 1300 and 1592 and 1040 and 1416 and 1184 and 2300 and 1048 | increase in water intake ([3]; 900 nmol/kg s.c., 24 h): 37% | increase in water intake to food intake ratio ([3]; 900 nmol/kg s.c., 24 h): 24% | increase in 24-h urine output relative to saline ([3]; 900 nmol/kg s.c., normonatremic rats): 77% | decrease in urine osmolality ([3]; 900 nmol/kg s.c., normonatremic rats, 24 h): 40% | Sodium excretion fraction ([3]; LIT01-196 900 nmol/kg, tolvaptan 6700 nmol/kg s.c., 24 h): not changed | Water excretion fraction ([3]; Tolvaptan 6700 nmol/kg SC, individual animals (Fig. S4C source data)): 0.8154 and 1.026 and 2.311 and 0.5818 and 0.7955 and 0.7 | Sodium excretion fraction ([3]; Tolvaptan 6700 nmol/kg SC, individual animals (Fig. S4D source data)): 0.6016 and 0.6502 and 0.5049 and 0.3349 and 0.4657 and 0.6432 | Water to food ratio ([3]; normonatremic rats, 900 nmol/kg SC, individual animal values (source data Fig. 4L)): 1.532 and 1.653 and 1.89 and 1.641 and 1.608 | plasma apelin-IR levels versus control rats (control rats; 3 h after 6700 nmol/kg s.c.): similar | plasma apelin/AVP ratio versus saline (control rats; 3 h after 6700 nmol/kg s.c.): similar | plasma AVP levels, higher than in animals receiving saline (control rats; 3 h after s.c., tolvaptan 6700 nmol/kg, LIT01-196 900 nmol/kg): 147% | AVP (control rats; plasma AVP, Tolvaptan 6700 nmol/kg SC, individual animals (Fig. S4F source data)): 46.8225 and 42.0318 and 57.2512 and 20.2981 and 21.5164 and 46.682 | Apelin (control rats; plasma apelin-IR, Tolvaptan 6700 nmol/kg SC, individual animals (Fig. S4E source data)): 782.319 and 460.81 and 574.125 and 749.499 and 564.407 and 576.365 | apelinAVPratio (control rats; plasma apelin/AVP ratio, Tolvaptan 6700 nmol/kg SC, individual animals (Fig. S4G source data)): 16.7082 and 10.9634 and 10.0282 and 36.9246 and 26.2315 and 12.3466 | increase in urine output 24 h after s.c. administration ([4]; 900 nmol/kg s.c., rats receiving 30 ng/h AVP and liquid diet): 9.5 ± 2.9 ml/24 h/100 g | increase in urine output 24 h after s.c. administration ([4]; 6700 nmol/kg s.c., rats receiving 30 ng/h AVP): 27 ± 9.0 ml/24 h/100 g | plasma AVP and apelin levels versus AVP + saline (hyponatremic rats; 6700 nmol/kg s.c., 3 h): similar | Plasma AVP (hyponatremic rats; AVP 30 ng/h rats, individual animals (Fig. 6A source data)): 39.2062 and 41.6048 and 44.1878 and 29.3355 and 51.7522 and 30.996 and 44.9258 and 45.018 | Plasma apelin (hyponatremic rats; AVP 30 ng/h rats, individual animals (Fig. 6B source data)): 312 and 375 and 335 and 404 and 283 and 315 and 384 and 365 | Apelin to AVP ratio (hyponatremic rats; AVP 30 ng/h rats, individual animals (Fig. 6C source data)): 7.958 and 9.013 and 7.581 and 13.7717 and 5.468 and 10.1626 and 8.547 and 8.108 | patients with overly rapid sodium correction (patients; 7.5 mg per day, hyponatremia patients, baseline serum sodium <125 mmol/l): 23% | patients with ADPKD discontinuing treatment for aquaresis-related events (patients): 8%

Fluoro-K16P: not recognized by the antibody directed against K17F (KFRRQRPRLSHKGPMP; also: fluorescent label, site and dye not given here; UniProt Q9ULZ1 61-76, looked up, fragment) [reference compound]
IC50 (anti-K17F serum): > 1000 nM
